system: not listed separately; test: Linker half-life determination by spectrophotometric proton release assay (spontaneous hydrolysis); format: physicochemical; details: buffer; 37 °C, pH 7.4; low molecular weight 90CE prodrugs with different N-2 substituents; read-out: Half-life (h) 37°C pH 7.4 (spontaneous hydrolysis) (converted)
Experimental: Linker half-life determination. The hydrolytic half-lives of several proposed linker moieties were determined using the proton release assay. The results are given in (Figure 4), several possible linkers with suitably long half-live values (40–300 h) were identified.
Decomposition kinetics. The kinetics of decomposition of various compounds and intermediates under various conditions can be followed using a spectrophotometric proton release assay. This is the preferred method for relatively short-lived agents as the decomposition can be followed in real time. This method is also suitable for following the decomposition of much longer-lived agents, as long as the reaction vessel/cuvette is sealed to prevent changes in pH due to CO2 absorption/desorption, and the temperature is closely controlled.

Compound | half-life [h]
CS(=O)(=O)N(CCCl)N(C(=O)N1CCOCC1)S(C)(=O)=O [I] | > 300
COC(=O)N(N(CCCl)S(C)(=O)=O)S(C)(=O)=O [B] | > 300
CNC(=O)N(N(CCCl)S(C)(=O)=O)S(C)(=O)=O [C] | 1.17 ± 0.02
CC(=O)N(N(CCCl)S(C)(=O)=O)S(C)(=O)=O [A] | 42.9 ± 2.1
CS(=O)(=O)N(CCCl)N(C(=O)N1CCCCC1)S(C)(=O)=O [H] | 16.2 ± 0.5
CC1CCC(C)N1C(=O)N(N(CCCl)S(C)(=O)=O)S(C)(=O)=O (stereo not shown) [G] | > 300
CCN(CC)C(=O)N(N(CCCl)S(C)(=O)=O)S(C)(=O)=O [E] | 10.3 ± 0.3
CN(C)C(=O)N(N(CCCl)S(C)(=O)=O)S(C)(=O)=O [D] | 129 ± 9
CS(=O)(=O)N(CCCl)N(C(=O)N1CCCC1)S(C)(=O)=O [F] | > 300

system: matching cell lines; test: not given; details: cited from earlier work

Compound | MGMT level up to which protection towards the agent is proportional to MGMT activity
CS(=O)(=O)NN(CCCl)S(C)(=O)=O [90CE, 1,2-bis(methylsulfonyl)-1-(2-chloroethyl)hydrazine] | ~ 10,000 MGMT molecules/cell

same assay, conditions: same matching cell lines with/without MGMT expression; cited from earlier work

Compound | increase in the IC50 value resulting from MGMT expression
CS(=O)(=O)NN(CCCl)S(C)(=O)=O [90CE, 1,2-bis(methylsulfonyl)-1-(2-chloroethyl)hydrazine] | ~ 20 fold
O=NN(CCCl)C(=O)NCCCl [bis-chloroethylnitrosourea (BCNU), bis-chloroethylnitrosourea] | 2 to 3 fold

system: O-6 position of DNA guanine; test: not given; set-up: method as in PMID 20654586; details: relative to chloroethylating counterpart 90CE; cited from earlier work

Compound | molar yield of guanine O-6 alkylations relative to 90CE
CN(NS(C)(=O)=O)S(C)(=O)=O [KS90, 1,2-bis(methylsulfonyl)-1-(methyl)hydrazine] | 5–6 times
